Values joined by “and” are separate entries in the source; they are usually repeats but may differ in a detail not shown here. Equal entries are not always repeated. Where two headings read alike, the source gives them in different places.
Key:
rat α1β1δε nAChR = biological target: T1, rat α1β1δε nAChR (Rattus norvegicus, UniProt P09660+P25108+P25109+P25110); experiment: Ca2+ flux (FLIPR) agonist/antagonist assay; type: cell-based
T1 construct: expressed in transfected cells; host or cells: HEK293 (made by Bristol-Myers Squibb)
T1 sequence (P25108 21-457): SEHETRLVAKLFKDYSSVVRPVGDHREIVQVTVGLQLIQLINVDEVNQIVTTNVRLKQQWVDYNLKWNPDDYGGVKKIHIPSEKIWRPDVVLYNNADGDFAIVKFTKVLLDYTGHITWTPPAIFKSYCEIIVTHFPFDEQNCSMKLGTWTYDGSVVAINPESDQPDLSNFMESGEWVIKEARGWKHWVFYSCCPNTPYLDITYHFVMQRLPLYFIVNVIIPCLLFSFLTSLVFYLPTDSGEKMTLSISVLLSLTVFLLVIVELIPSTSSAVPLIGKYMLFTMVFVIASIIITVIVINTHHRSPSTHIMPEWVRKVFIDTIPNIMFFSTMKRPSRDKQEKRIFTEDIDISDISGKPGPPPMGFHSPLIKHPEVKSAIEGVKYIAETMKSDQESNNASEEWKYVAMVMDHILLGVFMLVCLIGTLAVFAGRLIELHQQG
T1 sequence (P25109 24-501): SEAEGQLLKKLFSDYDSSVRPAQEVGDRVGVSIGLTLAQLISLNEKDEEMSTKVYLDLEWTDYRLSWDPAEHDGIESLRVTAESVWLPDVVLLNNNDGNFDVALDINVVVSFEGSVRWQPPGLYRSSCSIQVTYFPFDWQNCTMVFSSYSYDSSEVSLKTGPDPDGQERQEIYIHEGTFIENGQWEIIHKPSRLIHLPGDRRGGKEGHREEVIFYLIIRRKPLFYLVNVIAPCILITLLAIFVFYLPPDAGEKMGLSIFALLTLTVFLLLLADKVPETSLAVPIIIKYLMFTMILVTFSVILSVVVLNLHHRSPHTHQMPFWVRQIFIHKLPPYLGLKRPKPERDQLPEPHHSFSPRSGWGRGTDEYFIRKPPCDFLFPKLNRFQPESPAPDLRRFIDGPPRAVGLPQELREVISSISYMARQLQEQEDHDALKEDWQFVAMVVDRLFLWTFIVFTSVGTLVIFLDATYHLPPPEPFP
T1 sequence (P25110 22-517): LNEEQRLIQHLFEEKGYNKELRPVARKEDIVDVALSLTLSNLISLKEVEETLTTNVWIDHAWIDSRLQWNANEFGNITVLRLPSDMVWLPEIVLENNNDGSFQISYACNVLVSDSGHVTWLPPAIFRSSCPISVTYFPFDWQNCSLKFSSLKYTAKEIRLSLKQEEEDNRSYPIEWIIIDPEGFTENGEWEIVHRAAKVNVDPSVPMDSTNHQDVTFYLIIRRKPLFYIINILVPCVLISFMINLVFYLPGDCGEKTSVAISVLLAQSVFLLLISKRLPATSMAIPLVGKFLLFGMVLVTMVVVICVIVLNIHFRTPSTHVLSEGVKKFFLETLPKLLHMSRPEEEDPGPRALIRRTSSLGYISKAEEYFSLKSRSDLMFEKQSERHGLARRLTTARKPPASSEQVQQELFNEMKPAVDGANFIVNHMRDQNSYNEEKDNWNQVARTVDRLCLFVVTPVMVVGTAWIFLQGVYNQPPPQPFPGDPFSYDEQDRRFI
T1 sequence (P09660 21-494): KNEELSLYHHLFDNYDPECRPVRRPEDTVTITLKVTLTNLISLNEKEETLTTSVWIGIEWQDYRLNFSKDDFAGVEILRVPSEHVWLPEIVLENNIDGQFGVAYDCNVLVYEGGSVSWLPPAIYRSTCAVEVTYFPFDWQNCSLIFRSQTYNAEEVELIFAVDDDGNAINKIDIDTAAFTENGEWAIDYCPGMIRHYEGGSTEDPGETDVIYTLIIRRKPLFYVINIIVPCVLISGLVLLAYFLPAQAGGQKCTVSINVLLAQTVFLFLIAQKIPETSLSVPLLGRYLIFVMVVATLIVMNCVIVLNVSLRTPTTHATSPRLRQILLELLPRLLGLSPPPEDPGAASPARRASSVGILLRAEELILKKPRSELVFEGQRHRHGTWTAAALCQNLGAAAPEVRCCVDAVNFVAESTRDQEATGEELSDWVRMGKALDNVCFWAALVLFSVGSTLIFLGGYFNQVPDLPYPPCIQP

HEK293/Human α7 nAChR = HEK293/Human α7 nAChR (Homo sapiens, UniProt P36544); experiment: [3H]-A-585539 filtration binding; set-up: expressed in transfected cells
HEK293/Human α7 nAChR, sequence (P36544 23-502): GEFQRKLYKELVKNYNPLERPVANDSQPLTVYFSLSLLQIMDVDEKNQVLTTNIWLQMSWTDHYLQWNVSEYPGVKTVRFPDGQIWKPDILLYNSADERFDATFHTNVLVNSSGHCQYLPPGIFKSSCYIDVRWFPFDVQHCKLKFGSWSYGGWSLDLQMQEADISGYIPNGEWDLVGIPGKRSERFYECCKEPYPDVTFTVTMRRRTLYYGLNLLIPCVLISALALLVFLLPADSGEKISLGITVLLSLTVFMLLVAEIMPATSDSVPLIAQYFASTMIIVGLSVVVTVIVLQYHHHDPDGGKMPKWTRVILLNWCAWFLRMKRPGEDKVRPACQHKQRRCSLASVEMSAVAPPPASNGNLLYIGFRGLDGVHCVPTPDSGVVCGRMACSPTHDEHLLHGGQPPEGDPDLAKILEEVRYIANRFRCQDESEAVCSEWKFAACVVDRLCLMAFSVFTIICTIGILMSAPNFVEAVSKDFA

rat α4β2 nAChR = biological target: T2, rat α4β2 nAChR (Rattus norvegicus, UniProt P09483+P12390); experiment: Ca2+ flux (FLIPR) agonist/antagonist assay; type: cell-based
T2 construct: expressed in transfected cells; host or cells: HEK293 (made by Bristol-Myers Squibb)
T2 sequence (P09483 31-630): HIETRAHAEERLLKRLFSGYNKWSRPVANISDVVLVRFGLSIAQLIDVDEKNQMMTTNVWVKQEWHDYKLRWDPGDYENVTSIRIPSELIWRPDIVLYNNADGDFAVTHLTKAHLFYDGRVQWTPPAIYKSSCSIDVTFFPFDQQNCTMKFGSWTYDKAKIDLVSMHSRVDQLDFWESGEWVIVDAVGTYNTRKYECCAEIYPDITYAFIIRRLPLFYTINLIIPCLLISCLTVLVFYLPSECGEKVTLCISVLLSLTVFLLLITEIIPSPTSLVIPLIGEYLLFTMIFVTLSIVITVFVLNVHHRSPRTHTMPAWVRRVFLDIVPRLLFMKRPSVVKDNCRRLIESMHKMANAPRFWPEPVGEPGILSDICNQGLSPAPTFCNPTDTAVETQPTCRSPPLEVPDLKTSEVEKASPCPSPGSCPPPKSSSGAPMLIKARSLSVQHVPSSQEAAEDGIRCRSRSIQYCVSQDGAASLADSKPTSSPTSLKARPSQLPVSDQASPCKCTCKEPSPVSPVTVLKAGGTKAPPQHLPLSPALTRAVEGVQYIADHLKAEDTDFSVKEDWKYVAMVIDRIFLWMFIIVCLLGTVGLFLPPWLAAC
T2 sequence (P12390 25-500): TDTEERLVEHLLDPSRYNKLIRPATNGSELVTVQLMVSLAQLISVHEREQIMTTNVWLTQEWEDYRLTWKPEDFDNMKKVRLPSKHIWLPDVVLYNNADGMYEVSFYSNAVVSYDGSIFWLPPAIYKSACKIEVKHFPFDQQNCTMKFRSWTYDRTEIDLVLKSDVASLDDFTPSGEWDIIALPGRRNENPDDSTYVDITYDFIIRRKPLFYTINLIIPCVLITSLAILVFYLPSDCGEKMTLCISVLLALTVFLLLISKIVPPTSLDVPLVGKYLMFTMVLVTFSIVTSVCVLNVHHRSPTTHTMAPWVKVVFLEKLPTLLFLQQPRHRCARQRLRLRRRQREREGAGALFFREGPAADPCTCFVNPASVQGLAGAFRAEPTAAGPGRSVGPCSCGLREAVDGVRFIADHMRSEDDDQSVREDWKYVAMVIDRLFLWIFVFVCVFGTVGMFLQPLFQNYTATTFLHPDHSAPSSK

HEK293/Human 5-HT3A = biological target: T3, HEK293/Human 5-HT3A (Homo sapiens, UniProt P46098); experiment: Ca2+ flux (FLIPR) 5-HT3A antagonist assay; type: cell-based
T3 construct: expressed in transfected cells; host or cells: HEK293 (made by Bristol-Myers Squibb)
T3 sequence (P46098 24-478): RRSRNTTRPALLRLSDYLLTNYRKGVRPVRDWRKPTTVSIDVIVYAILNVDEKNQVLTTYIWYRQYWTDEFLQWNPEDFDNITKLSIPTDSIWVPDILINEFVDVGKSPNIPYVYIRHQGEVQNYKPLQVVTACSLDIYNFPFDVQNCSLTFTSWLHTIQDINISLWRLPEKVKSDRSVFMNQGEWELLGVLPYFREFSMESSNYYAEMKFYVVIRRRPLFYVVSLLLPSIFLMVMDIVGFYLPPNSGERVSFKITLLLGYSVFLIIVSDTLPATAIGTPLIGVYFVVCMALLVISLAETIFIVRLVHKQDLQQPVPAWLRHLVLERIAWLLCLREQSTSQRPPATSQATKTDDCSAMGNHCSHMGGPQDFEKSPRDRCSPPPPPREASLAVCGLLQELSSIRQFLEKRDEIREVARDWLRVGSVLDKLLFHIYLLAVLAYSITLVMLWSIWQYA
Procedure: Functional activity was examined using Ca^2+-sensitive, dye-based, microfluorometric assays read on the FLIPR Tetra plate reader platform (Molecular Devices, CA, USA). Cells were plated in 384-well black, clear-bottomed Greiner poly-D-lysine coated plates at a density of ~25 K cells/well and incubated at 29°C for 48 h. Prior to assay, media contents were removed and cells incubated in assay buffer containing 5μM final Fluo-4 dye for 90 min. For nAChR assays, the dye-loading buffer was HBSS (#14175 Life Technologies) supplemented with 20 mM HEPES, 0.5 mM CaCl2, 1 mM MgCl2 and 10 μM atropine (final concentration). Test compounds were solubilized in DMSO and serially diluted in NUNC 384-well plates prior to addition of assay buffer (5.3 mM KCl + 140 mM NaCl + 20 mM Hepes + 25 mM CaCl2 + 1 mM MgCl2 + 10 μM atropine final concentration). Compounds diluted in assay buffer were added to the assay plate by the FLIPR and read for approximately 2 min. […] For 5-HT3A antagonist studies, the dye loading and compound diluent buffer was HBSS (#14025 Life Technologies) supplemented with 20 mM HEPES (final concentration) and the concentration of 5-HT used in the assay was 2 μM. Offline transformation of concentration response data was done using a 4 parameter logistic fit using a Bristol-Myers Squibb proprietary informatics software suite.

Rat Brain α7 nAChR = Rat Brain α7 nAChR (Rattus norvegicus, UniProt Q05941); experiment: [3H]-A-585539 filtration binding
Rat Brain α7 nAChR, sequence (Q05941 23-502): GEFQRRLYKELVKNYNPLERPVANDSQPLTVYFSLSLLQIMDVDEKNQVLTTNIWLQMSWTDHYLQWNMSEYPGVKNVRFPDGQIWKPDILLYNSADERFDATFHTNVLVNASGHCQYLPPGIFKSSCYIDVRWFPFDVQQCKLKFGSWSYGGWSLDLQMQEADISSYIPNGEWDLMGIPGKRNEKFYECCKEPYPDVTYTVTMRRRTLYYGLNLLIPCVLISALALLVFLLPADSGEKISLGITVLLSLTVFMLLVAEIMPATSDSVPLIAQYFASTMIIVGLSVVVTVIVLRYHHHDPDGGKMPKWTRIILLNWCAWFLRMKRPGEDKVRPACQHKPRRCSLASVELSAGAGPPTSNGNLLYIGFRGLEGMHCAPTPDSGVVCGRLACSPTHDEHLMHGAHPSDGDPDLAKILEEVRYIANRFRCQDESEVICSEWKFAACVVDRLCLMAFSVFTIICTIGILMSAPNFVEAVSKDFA

rat α3β4 nAChR = biological target: T4, rat α3β4 nAChR (Rattus norvegicus, UniProt P04757+P12392); experiment: Ca2+ flux (FLIPR) agonist/antagonist assay; type: cell-based
T4 construct: expressed in transfected cells; host or cells: HEK293 (made by Bristol-Myers Squibb)
T4 sequence (P04757 26-499): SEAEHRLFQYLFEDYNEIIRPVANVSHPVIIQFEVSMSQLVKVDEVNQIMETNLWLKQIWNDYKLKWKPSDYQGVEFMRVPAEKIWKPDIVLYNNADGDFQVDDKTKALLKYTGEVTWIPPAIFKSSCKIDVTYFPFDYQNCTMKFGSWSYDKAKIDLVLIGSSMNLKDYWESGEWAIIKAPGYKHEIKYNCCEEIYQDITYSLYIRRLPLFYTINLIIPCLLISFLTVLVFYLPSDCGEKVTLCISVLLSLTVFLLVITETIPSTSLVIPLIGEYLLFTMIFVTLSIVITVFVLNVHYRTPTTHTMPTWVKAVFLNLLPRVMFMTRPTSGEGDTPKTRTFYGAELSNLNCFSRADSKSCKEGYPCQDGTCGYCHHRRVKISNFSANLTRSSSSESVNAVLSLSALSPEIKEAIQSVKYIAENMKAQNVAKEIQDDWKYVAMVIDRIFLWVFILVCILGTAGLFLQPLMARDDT
T4 sequence (P12392 21-495): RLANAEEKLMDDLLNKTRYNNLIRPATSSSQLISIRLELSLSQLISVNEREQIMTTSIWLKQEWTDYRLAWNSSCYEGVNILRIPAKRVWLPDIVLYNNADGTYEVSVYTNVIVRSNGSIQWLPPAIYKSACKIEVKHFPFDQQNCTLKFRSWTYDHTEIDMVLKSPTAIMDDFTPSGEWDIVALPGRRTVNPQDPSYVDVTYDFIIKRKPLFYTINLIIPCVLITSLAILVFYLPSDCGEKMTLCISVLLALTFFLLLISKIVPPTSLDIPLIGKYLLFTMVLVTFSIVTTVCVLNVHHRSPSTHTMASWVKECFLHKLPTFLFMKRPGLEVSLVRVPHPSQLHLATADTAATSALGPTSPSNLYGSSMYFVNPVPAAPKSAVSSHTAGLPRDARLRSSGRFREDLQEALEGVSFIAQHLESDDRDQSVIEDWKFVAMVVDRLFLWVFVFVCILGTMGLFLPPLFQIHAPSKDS

[1] = biological target: T5, HEK293/rat α7 nAChR cells (Rattus norvegicus, UniProt Q05941); experiment: Whole cell voltage clamp electrophysiology; type: cell-based; settings: for Net Charge (Current Area) normalized to 300 µM ACh / Peak Current normalized to 3 mM ACh: individual cells
T5 construct: expressed in transfected cells
T5 sequence (Q05941 23-502): as the sequence (Q05941 23-502) above
Procedure: Whole-cell voltage clamp studies were conducted on HEK293/rat α7 or HEK293/human α7 nAChR cells. […] Atropine (1 μM) was included in the bathing solution. […] Cells were voltage clamped at a holding potential of -90 mV. Using the Dynaflow microfluidic perfusion system (Cellectricon; flow 26 μl/min) responses to a 300 ms application of ACh or α7 nAChR agonists were measured. Currents were filtered at 2 kHz and sampled at 10 kHz using an EPC-9 amplifier and HEKA Pulse/Patchmaster software. […] The peak current amplitude and net charge crossing the membrane (i.e. the area under the current response curve) induced by agonist application were measured using Clampfit (pClamp Suite) and normalized to the maximal response induced by ACh (3 mM ACh for peak current amplitude and 300 μM ACh for net charge).

α7 nAChR = settings: read-out: reported Ki; cited from earlier work
human 5-HT3A receptors = biological target: T6, human 5-HT3A receptors (Homo sapiens, UniProt P46098); experiment: biochemical; settings: human 5-HT3A Ki, displacement of [3H]-granisetron
T6 sequence (P46098 24-478): T3 sequence (P46098 24-478)

[2] = FLIPR agonist mode, read-out: agonist EC50 at α4β2 nAChR
[3] = HEK293/Human 5-HT3A Mean ± SD IC50, Ca2+ flux (FLIPR), antagonism of 2 μM 5-HT
[4] = Human 5-HT3A IC50 values (individual), FLIPR, individual determinations
[5] = FLIPR agonist mode, read-out: agonist EC50 at α1β1δε nAChR
[6] = FLIPR agonist mode, read-out: agonist EC50 at α3β4 nAChR

Clc1ccc(C2CC3CCC2N3)cn1 (racemic) [Epibatidine, (±)epibatidine]
EC50 (rat α1β1δε nAChR): > 1000 nM | Ki (HEK293/Human α7 nAChR; HEK293/Human α7 nAChR Mean ± SD Ki, displacement of [3H]-A-585539): 10.5 ± 1.58 nM | Ki (HEK293/Human α7 nAChR; HEK293/human α7 nAChR Ki (individual), individual determinations): 9.7 nM (2×) and 12.9 nM and 9.8 nM

CN1CC2CN(c3ccc(-c4ccccc4)nn3)CC2C1.Cl.Cl (centres unmarked) [A-582941, octahydro-2-methyl-5-(6-phenyl-3-pyridazinyl)-pyrrolo[3,4-c]pyrrole dihydrochloride]
EC50 (rat α4β2 nAChR; [2]): > 100000 nM | Ratio (5-HT3A IC50 / α7 nAChR EC50; functional selectivity) (HEK293/Human 5-HT3A; FLIPR): 1.1 | IC50 (HEK293/Human 5-HT3A; [3]): 102 ± 86 nM | IC50 (HEK293/Human 5-HT3A; [4]): 73 nM and 75 nM and 76 nM and 109 nM and 47 nM and 79 nM and 59 nM and 86 nM and 344 nM and 72 nM | Ki (Rat Brain α7 nAChR; Rat Brain α7 nAChR Ki (individual)): 23 nM and 20.3 nM | Ki (Rat Brain α7 nAChR; Rat Brain α7 nAChR Mean ± SD Ki): 21.7 nM | EC50 (rat α1β1δε nAChR; [5]): > 100000 nM | EC50 (rat α3β4 nAChR; [6]): > 100000 nM | Ki (HEK293/Human α7 nAChR; HEK293/Human α7 nAChR Mean ± SD Ki): 82.6 nM | Ki (HEK293/Human α7 nAChR; HEK293/human α7 nAChR Ki (individual)): 99 nM and 72.5 nM and 76.3 nM

Cl.O=C(N[C@H]1CN2CCC1CC2)c1ccc(Cl)cc1 [PNU-282987, N-(3R)-1-azabicyclo[2.2.2]oct-3-yl-4-chloro-benzamide hydrochloride]
EC50 (rat α4β2 nAChR; [2]): > 100000 nM | Ratio (5-HT3A IC50 / α7 nAChR EC50; functional selectivity) (HEK293/Human 5-HT3A; FLIPR): 264 | IC50 (HEK293/Human 5-HT3A; [3]): 24900 nM | IC50 (HEK293/Human 5-HT3A; [4]): 32100 nM and 23600 nM and 6350 nM and 38400 nM and 24100 nM | EC50 (rat α1β1δε nAChR; [5]): > 100000 nM | EC50 (rat α3β4 nAChR; [6]): > 100000 nM

O=C(N[C@@H]1C2CCN(CC2)[C@H]1Cc1cccnc1)c1cc2ccccc2o1 [TC-5619, (2S,3R)-N-[2-(pyridin-3-ylmethyl)-1-azabicyclo[2.2.2]oct-3-yl]benzo[b]furan-2-carboxamide]
Net Charge (Current Area) normalized to 300 µM ACh ([1]; 0.001 µM): 0.01291 and 0.1795 and 0.008199 | Peak Current normalized to 3 mM ACh ([1]; 0.001 µM): 0.003543 and 0.01162 and 0.003662 | Net Charge (Current Area) normalized to 300 µM ACh ([1]; 0.003 µM): -0.00013 and 0.03241 and 0.001885 | Peak Current normalized to 3 mM ACh ([1]; 0.003 µM): 0.003116 and 0.008701 and 0.005453 | Net Charge (Current Area) normalized to 300 µM ACh ([1]; 0.01 µM): 0.000016 and 0.002188 and -0.00959 | Peak Current normalized to 3 mM ACh ([1]; 0.01 µM): 0.006073 and 0.007536 and 0.009875 | Net Charge (Current Area) normalized to 300 µM ACh ([1]; 0.03 µM): 0.1492 and 0.1468 and 0.2028 | Peak Current normalized to 3 mM ACh ([1]; 0.03 µM): 0.02004 and 0.01567 and 0.02139 | Mean ± SEM Net Charge Ymax ([1]; Rat, normalized to 300 μM ACh): 1.26 ± 0.02 | Mean ± SEM Peak Current Ymaxobs @ 10 μM ([1]; Rat, normalized to 3 mM ACh): 0.55 ± 0.06 | Net Charge (Current Area) normalized to 300 µM ACh ([1]; TC-5619 series 0.1 µM): 0.6879 and 0.7239 and 0.8481 | Peak Current normalized to 3 mM ACh ([1]; TC-5619 series 0.1 µM): 0.05408 and 0.04485 and 0.05183 | Net Charge (Current Area) normalized to 300 µM ACh ([1]; TC-5619 series 0.3 µM): 1.093 and 1.107 and 1.105 | Peak Current normalized to 3 mM ACh ([1]; TC-5619 series 0.3 µM): 0.1599 and 0.1241 and 0.1149 | Net Charge (Current Area) normalized to 300 µM ACh ([1]; TC-5619 series 1 µM): 1.242 and 1.143 and 1.297 | Peak Current normalized to 3 mM ACh ([1]; TC-5619 series 1 µM): 0.276 and 0.2576 and 0.2679 | Net Charge (Current Area) normalized to 300 µM ACh ([1]; TC-5619 series 3 µM): 1.234 and 1.271 and 1.312 | Peak Current normalized to 3 mM ACh ([1]; TC-5619 series 3 µM): 0.4166 and 0.4279 and 0.4555 | Net Charge (Current Area) normalized to 300 µM ACh ([1]; TC-5619 series 10 µM): 1.226 and 1.317 and 1.306 | Peak Current normalized to 3 mM ACh ([1]; TC-5619 series 10 µM): 0.4847 and 0.4851 and 0.6732 | EC50 (rat α4β2 nAChR): > 100000 nM | IC50 (HEK293/Human 5-HT3A; Ca2+ flux (FLIPR), antagonism of 2 μM 5-HT, read-out: HEK293/Human 5-HT3A Mean ± SD IC50): > 100000 nM | IC50 (HEK293/Human 5-HT3A; FLIPR, individual determinations, read-out: Human 5-HT3A IC50 values (individual)): > 100000 nM | EC50 (rat α1β1δε nAChR): > 100000 nM | EC50 (rat α3β4 nAChR): > 100000 nM | Ki (α7 nAChR): 1 nM | Ki (human 5-HT3A receptors): > 10000 nM

C[N+]1(C)CC2CC1CN2c1ccc(-c2ccccc2)nn1 (centres unmarked) [[^3H]-A-585539, ^3H-2,2-dimethyl-5-(6-phenyl-3-pyridazinyl)-5-aza-2-azoniabicyclo[2.2.1]heptane iodide]
Kd (HEK293/Human α7 nAChR; recombinant human α7 nAChR, n = 2, read-out: mean Kd, saturation binding): 0.656 nM

From article PMC4965148 (PLoS ONE, 2016)
